Assay: mean ionic activity coefficient (dimensionless); mn = molality of the nth substance listed, in mol/kg
Conditions: 298.15 K, 100 kPa, Liquid, Potentiometry

[Cl-].[Cs+] [cesium chloride] + O
Conditions | mean ionic activity coefficient
m1 = 0.0085 | 0.905
m1 = 0.01 | 0.898
m1 = 0.028 | 0.843
m1 = 0.0297 | 0.84
m1 = 0.0574 | 0.794
m1 = 0.0706 | 0.778
m1 = 0.0969 | 0.753
m1 = 0.1497 | 0.715
m1 = 0.1937 | 0.692
m1 = 0.2985 | 0.652
m1 = 0.3873 | 0.628
m1 = 0.5981 | 0.588
m1 = 0.6802 | 0.577
m1 = 0.9033 | 0.552
m1 = 1.073 | 0.538
m1 = 1.504 | 0.513
m1 = 1.56 | 0.51
m1 = 2.106 | 0.492
m1 = 2.152 | 0.491
m1 = 2.947 | 0.477
m1 = 3.008 | 0.476
m1 = 3.944 | 0.472
m1 = 4.002 | 0.471

From the NIST ThermoML archive (doi:10.1021/acs.jced.7b00024)
